Reference: patent publication US8372865B2, “Dihydropyridone amides as P2X7 modulators” (Roche Palo Alto LLC, priority 2008, dated 2013)

Molecular target: T1, P2X7 receptor (UniProt Q99572)
T1 sequence (Q99572 1-595): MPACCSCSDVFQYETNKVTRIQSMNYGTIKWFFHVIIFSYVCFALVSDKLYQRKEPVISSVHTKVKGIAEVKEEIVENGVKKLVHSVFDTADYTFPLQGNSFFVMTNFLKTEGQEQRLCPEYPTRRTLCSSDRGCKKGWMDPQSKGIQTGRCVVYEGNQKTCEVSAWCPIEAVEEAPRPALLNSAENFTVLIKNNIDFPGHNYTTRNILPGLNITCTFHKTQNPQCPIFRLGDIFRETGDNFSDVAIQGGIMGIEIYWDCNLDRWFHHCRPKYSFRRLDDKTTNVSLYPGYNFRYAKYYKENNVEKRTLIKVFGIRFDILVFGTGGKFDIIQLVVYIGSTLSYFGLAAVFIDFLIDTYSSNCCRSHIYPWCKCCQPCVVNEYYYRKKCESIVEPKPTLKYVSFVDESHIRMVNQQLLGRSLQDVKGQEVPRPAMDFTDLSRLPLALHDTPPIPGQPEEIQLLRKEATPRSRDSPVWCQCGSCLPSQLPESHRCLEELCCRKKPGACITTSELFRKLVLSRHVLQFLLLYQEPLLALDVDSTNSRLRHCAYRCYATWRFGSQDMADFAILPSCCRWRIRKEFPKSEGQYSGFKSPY
Test: pKi of Table 1 (assay not stated)
Type: cell-based
Procedure: Intracellular Calcium Flux (FLIPR) Assay
Stock solutions of compounds were prepared from powders as a 10 mM DMSO stock solution. These solutions were stored at RT during the two week period of these experiments to prevent freeze-thaw of the DMSO stocks. The DMSO stocks were added to the appropriate assay buffer at a concentration of 10 μM, and then diluted serially to the final concentrations that were tested. […] The aqueous solutions of compounds as well as ATP (Sigma A7699) and BzATP (Sigma B6396) were prepared fresh for each day of experiment.
1321N1 cells stably expressing the full length human P2X7 gene (1321N1-hP2X7) and HEK293 cells stably expressing the full length rat P2X7 gene (HEK293-rP2X7) were obtained from the Roche Cell Culture Facility. 1321N1-hP2X7 cells were grown in Dulbecco's Modified Eagle's Medium (DMEM) high glucose supplemented with 10% FBS and 250 μg/mL G418. HEK293-rP2X7 cells were grown in DMEM/F-12 supplemented with 10% FBS, 1 mM CaCl2, 2 mM MgCl2, 2 mM L-Glutamine and 500 μg/ml G418. Cells were split such that they never became>70% confluent.
On the day prior to the experiment, 1321N1-hP2X7 or HEK293-rP2X7 cells were released into suspension with calcium-free PBS+Versene and washed by centrifugation with calcium-free PBS to remove the Versene. Cells were resuspended in growth medium at a density of 2.5×10^5 cells/mL and seeded into black walled, clear bottom 96 well plates (50,000 cells/well) approximately 18 hr prior to intracellular calcium flux experiments.
On the day of the experiment, plates were washed with FLIPR buffer (calcium- and magnesium-free Hank's Balanced Salt Solution (HBSS) supplemented with 10 mM Hepes, 2.5 mM probenecid and 2 mM calcium chloride) using a BIO-TEK 96 channel plate washer and incubated with […] fluo-3 dye at 37° C. for one hr. The dye was then removed by plate washing and the cells were allowed to equilibrate for 20 min at room temperature with antagonist or vehicle (FLIPR buffer). Agonist (100 μM BzATP final concentration for hP2X7; 5 μM BzATP final concentration or rP2X7) was added online with the FLIPR and fluorescence measurements made at 1 sec intervals for 60 sec followed by 3 sec intervals for a further 4 min (5 min total). A final addition of 5 μM ionomycin was made and the maximal BzATP-evoked fluorescence normalized to the maximal ionomycin-evoked fluorescence.

SMILES	pKi
Cc1ccc2ncccc2c1NC(=O)C1=CNC(=O)C[C@H]1c1ccc(F)cc1 [Compound 27, (S)-4-(4-Fluoro-phenyl)-6-oxo-1,4,5,6-tetrahydro-pyridine-3-carboxylic acid (6-methyl-quinolin-5-yl)-amide]	7.64
Cc1cc2cnn(CCO)c2cc1NC(=O)C1=CNC(=O)C[C@H]1c1ccc(F)cc1 [Compound 28, (S)-4-(4-Fluoro-phenyl)-6-oxo-1,4,5,6-tetrahydro-pyridine-3-carboxylic acid [1-(2-hydroxy-ethyl)-5-methyl-1H-indazol-6-yl]-amide]	7.645
Cc1cc2cc(C)n(CCO)c2cc1NC(=O)C1=CNC(=O)C[C@H]1c1ccc(F)cc1 [Compound 29, (S)-4-(4-Fluoro-phenyl)-6-oxo-1,4,5,6-tetrahydro-pyridine-3-carboxylic acid [1-(2-hydroxy-ethyl)-2,5-dimethyl-1H-indol-6-yl]-amide]	6.285
Cc1cc2c(C)cn(CCO)c2cc1NC(=O)C1=CNC(=O)C[C@H]1c1ccc(F)cc1 [Compound 30, (S)-4-(4-Fluoro-phenyl)-6-oxo-1,4,5,6-tetrahydro-pyridine-3-carboxylic acid [1-(2-hydroxy-ethyl)-3,5-dimethyl-1H-indol-6-yl]-amide]	6.89
CCc1cc2c(cc1NC(=O)C1=CNC(=O)C[C@H]1c1ccc(F)cc1)N(C)C(=O)CC2 [Compound 31, (S)-4-(4-Fluoro-phenyl)-6-oxo-1,4,5,6-tetrahydro-pyridine-3-carboxylic acid (6-ethyl-1-methyl-2-oxo-1,2,3,4-tetrahydro-quinolin-7-yl)-amide]	6.805
CC1=C(C(=O)Nc2ccc3[nH]ncc3c2)C(c2ccc(F)cc2)CC(=O)N1 (stereo not shown) [Compound 32, 4-(4-Fluoro-phenyl)-2-methyl-6-oxo-1,4,5,6-tetrahydro-pyridine-3-carboxylic acid (1H-indazol-5-yl)-amide]	5.14
Cc1cc2c(cc1NC(=O)C1=CNC(=O)C[C@H]1c1ccc(F)cc1)N(CCO)C(=O)CC2 [Compound 33, (S)-4-(4-Fluoro-phenyl)-6-oxo-1,4,5,6-tetrahydro-pyridine-3-carboxylic acid [1-(2-hydroxy-ethyl)-6-methyl-2-oxo-1,2,3,4-tetrahydro-quinolin-7-yl]-amide]	6.285
O=C1C[C@@H](c2ccc(F)cc2)C(C(=O)Nc2cc3c(cc2Br)N(CCO)C(=O)CC3)=CN1 [Compound 34, (S)-4-(4-Fluoro-phenyl)-6-oxo-1,4,5,6-tetrahydro-pyridine-3-carboxylic acid [7-bromo-1-(2-hydroxy-ethyl)-2-oxo-1,2,3,4-tetrahydro-quinolin-6-yl]-amide]	6.785
CCc1c(NC(=O)C2=CNC(=O)C[C@H]2c2ccc(F)cc2)ccc2nc(C)ccc12 [Compound 35, (S)-4-(4-Fluoro-phenyl)-6-oxo-1,4,5,6-tetrahydro-pyridine-3-carboxylic acid (5-ethyl-2-methyl-quinolin-6-yl)-amide]	7.18
Cc1cc2c(cc1NC(=O)C1=CNC(=O)C[C@H]1c1ccc(F)cc1)NC(=O)CO2 [Compound 36, (S)-4-(4-Fluoro-phenyl)-6-oxo-1,4,5,6-tetrahydro-pyridine-3-carboxylic acid (7-methyl-3-oxo-3,4-dihydro-2H-benzo[1,4]oxazin-6-yl)-amide]	5.56

Continued, values first:

pKi	SMILES
5.25	O=C1C[C@@H](c2ccc(F)cc2)C(C(=O)Nc2cc3c(cc2Br)OCC(=O)N3CCO)=CN1 [Compound 38, (S)-4-(4-Fluoro-phenyl)-6-oxo-1,4,5,6-tetrahydro-pyridine-3-carboxylic acid [7-bromo-4-(2-hydroxy-ethyl)-3-oxo-3,4-dihydro-2H-benzo[1,4]oxazin-6-yl]-amide]
5.48	Cc1cc2c(cc1NC(=O)C1=CNC(=O)C[C@H]1c1ccc(F)cc1)N(CCO)C(=O)CO2 [Compound 39, (S)-4-(4-Fluoro-phenyl)-6-oxo-1,4,5,6-tetrahydro-pyridine-3-carboxylic acid [4-(2-hydroxy-ethyl)-7-methyl-3-oxo-3,4-dihydro-2H-benzo[1,4]oxazin-6-yl]-amide]
6.485	CCc1cc2c(cc1NC(=O)C1=CNC(=O)C[C@H]1c1ccc(F)cc1)N(CCO)C(=O)CO2 [Compound 40, (S)-4-(4-Fluoro-phenyl)-6-oxo-1,4,5,6-tetrahydro-pyridine-3-carboxylic acid [7-ethyl-4-(2-hydroxy-ethyl)-3-oxo-3,4-dihydro-2H-benzo[1,4]oxazin-6-yl]-amide]
5.145	O=C1C[C@@H](c2ccc(F)cc2)C(C(=O)Nc2cc3c(cc2Br)CCC(=O)N3)=CN1 [Compound 41, (S)-4-(4-Fluoro-phenyl)-6-oxo-1,4,5,6-tetrahydro-pyridine-3-carboxylic acid (6-bromo-2-oxo-1,2,3,4-tetrahydro-quinolin-7-yl)-amide]
7.74	CCc1cc2cnn(C)c2cc1NC(=O)C1=CNC(=O)C[C@H]1c1ccc(F)cc1 [Compound 42, (S)-4-(4-Fluoro-phenyl)-6-oxo-1,4,5,6-tetrahydro-pyridine-3-carboxylic acid (5-ethyl-1-methyl-1H-indazol-6-yl)-amide]
7.505	Cc1cc2c(cc1NC(=O)C1=CNC(=O)C[C@H]1c1ccc(F)cc1)CCC(=O)N2C [Compound 43, (S)-4-(4-Fluoro-phenyl)-6-oxo-1,4,5,6-tetrahydro-pyridine-3-carboxylic acid (1,7-dimethyl-2-oxo-1,2,3,4-tetrahydro-quinolin-6-yl)-amide]
7.825	CCc1cc2cnn(C)c2cc1NC(=O)C1=CNC(=O)C[C@H]1c1cccc(F)c1 [Compound 44, (S)-4-(3-Fluoro-phenyl)-6-oxo-1,4,5,6-tetrahydro-pyridine-3-carboxylic acid (5-ethyl-1-methyl-1H-indazol-6-yl)-amide]
7.7	CCc1cc2cnn(CCO)c2cc1NC(=O)C1=CNC(=O)C[C@H]1c1cccc(F)c1 [Compound 45, (S)-4-(3-Fluoro-phenyl)-6-oxo-1,4,5,6-tetrahydro-pyridine-3-carboxylic acid [5-ethyl-1-(2-hydroxy-ethyl)-1H-indazol-6-yl]-amide]
7.635	CCc1c(NC(=O)C2=CNC(=O)C[C@H]2c2cccc(F)c2)ccc2nc(C)ccc12 [Compound 46, (S)-4-(3-Fluoro-phenyl)-6-oxo-1,4,5,6-tetrahydro-pyridine-3-carboxylic acid (5-ethyl-2-methyl-quinolin-6-yl)-amide]
5.29	O=C1C[C@@H](c2ccc(F)cc2)C(C(=O)Nc2cccc3ccncc23)=CN1 [Compound 47, (S)-4-(4-Fluoro-phenyl)-6-oxo-1,4,5,6-tetrahydro-pyridine-3-carboxylic acid isoquinolin-8-ylamide]
5.425	Cc1cc2c(NC(=O)C3=CNC(=O)C[C@H]3c3ccc(F)cc3)cccc2nn1 [Compound 48, (S)-4-(4-Fluoro-phenyl)-6-oxo-1,4,5,6-tetrahydro-pyridine-3-carboxylic acid (3-methyl-cinnolin-5-yl)-amide]
7.8567	Cc1ccc2c(NC(=O)C3=CNC(=O)C[C@H]3c3ccc(F)cc3)c(C)ccc2n1 [Compound 49, (S)-4-(4-Fluoro-phenyl)-6-oxo-1,4,5,6-tetrahydro-pyridine-3-carboxylic acid (2,6-dimethyl-quinolin-5-yl)-amide]
